Values of other authors, collected in US20200368163A1, “EN[…]-DISPERSIBLE CANNABINOID NANOPARTICLE COMPOSITIONS, METHODS AND SYSTEMS” (The Trustees of Princeton University, priority 2019, published 2020).

Compound: C=C(C)[C@@H]1CCC(C)=C[C@H]1c1c(O)cc(CCCCC)cc1O [CBD, Cannabidiol]
- log P: ~6
